Laboratory results taken from PMC3877906, “Polypeptide Modulators of TRPV1 Produce Analgesia without Hyperthermia” (Marine Drugs, 2013).

Experiments:
ASIC3 = ASIC3 activity, oocyte electrophysiology or agonist-induced fluorescence readout; assay type: cell-based; details: concentrations of up to 2 μM; data not shown
p2X3 = p2X3 activity, oocyte electrophysiology or agonist-induced fluorescence readout; assay type: cell-based; details: concentrations of up to 2 μM; data not shown
CD-1 mice [1] = test: open-field locomotor activity test; assay type: in vivo, mouse; details: 0.1 mg/kg i.v.; vs saline; n = 9 per group; 3 min recording
Excerpt: We conducted multiple in vivo experiments to assess the biological effects of APHC1 and APHC3, acting via modulation of TRPV1, on temperature sensation and inflammation. Possible negative effects of investigated components on the central nervous system were first excluded. We evaluated APHC1/3 in open-field locomotor activity tests as compounds capable of reducing locomotor activity could misrepresent results of other behavioral tests (particularly in pain models). […] There was no significant effect detected for either polypeptide at a dose of 0.1 mg/kg i.v. (Figure 3a).
All experiments were performed in accordance with the recommendations in the “Principles of Laboratory Animal Care” and after approval by the Animal Care and Use Committee of the Branch of the IBCh RAS (Pushchino, Russia). Adult male CD-1 mice (Animal Breeding Facility Branch of Shemyakin-Ovchinnikov Institute of Bioorganic Chemistry, Russian Academy of Sciences, Pushchino, Russia) weighing 20–25 g were used. […]
The significance of the data was determined by analysis of variance (ANOVA) followed by Tukey’s test. […]
Open-field activity was measured using a system that counts interruptions in a set of photo beams (OPTO—VARIMEX (Columbus Instruments, Columbus, OH, USA) and ATM3 Auto System using Auto-Track Version 4.2 software). Spontaneous locomotor activity was recorded for 3 min.

CD-1 mice [2] = test: pain models in vivo, overall; parameters: species or system mouse; details: i.v.
Protocol: All experiments were performed in accordance with the recommendations in the “Principles of Laboratory Animal Care” and after approval by the Animal Care and Use Committee of the Branch of the IBCh RAS (Pushchino, Russia). Adult male CD-1 mice (Animal Breeding Facility Branch of Shemyakin-Ovchinnikov Institute of Bioorganic Chemistry, Russian Academy of Sciences, Pushchino, Russia) weighing 20–25 g were used. Animals were allowed to acclimate in the laboratory for at least five days. Mice were housed at room temperature (23 ± 2 °C) on a 12 h light–dark cycle with food and water available ad libitum. Polypeptides or vehicle was administered intravenously 15 min before testing.
The significance of the data was determined by analysis of variance (ANOVA) followed by Tukey’s test. Data are presented as mean ± S.E.

TRPV1 [3] = details: ref [14], cited from earlier work
Protocol: APHC3’s mode of action was measured on HEK-293 cells using a whole-cell patch clamp approach and single cell Ca^2+ imaging. […] APHC3 is highly homologous to APHC1, differing in four of 56 amino acids. APHC1 and APHC3 have a primary structure that is highly homologous to BPTI/Kunitz type seri ... || The residues responsible for APHC’s activity are not determined. […] These dif ...

[4] = system: TRPV1-dependent normal and diabetic bladder smooth muscle contractility; details: ref [17]; cited from earlier work
Excerpt: (§1) Polypeptide molecules typically have a greater specific activity at a particular receptor than do small molecule agonists, which makes them attractive for researchers and pharmaceutical companies. We have previously reported the isolation of a polypeptide modulator of TRPV1 from a homogenized extract of the sea anemone Heteractis crispa named APHC1 and its partial in vivo characterization. Two homological polypeptides (APHC2 and APHC3) were subsequently found in the same extract, but their biological activity has not yet been properly characterized. APHC1 and APHC3 are weak ...

serine proteases = details: ref [14],[16]; cited from earlier work
Excerpt: as §1

TRPV1 [5] = test: single cell Ca^2+ imaging, acid-induced (pH 5.5) responses of TRPV1-positive HEK-293 cells; assay type: cell-based, rat; details: for inhibition of acid responses: Fura-2, mean ± s.d.
Protocol: Figure 2 Effects of APHC3 on recombinant TRPV1 expressed in HEK-293 cells. (a) Resting current recorded from a TRPV1-positive cell held at −30 mV. […] Straight lines above the recording indicate application of APHC3 (Long line) and capsaicin (Short lines). The cells were stimulated and rinsed by rapid switching of the bath solution between the control solution and solutions containing the indicated compound. (b) Capsaicin responses in control and in the presence of the 300 nM APHC3 peptide. In each case, the control response was calculated as an average of two acid responses recorded just prior to peptide application. Averaged responses recorded in the presence of APHC3 were normalized to averaged control responses. Those are presented as the mean ± s.d. (n = 4). […] (c, d) Cell responses to the acidification of the bath solution from pH 7.4 to pH 5.5 in control and in the presence of the APHC3 applied at different concentrations as indicated. The experimental traces in (c) and in (d, upper trace) illustrate representative responses of EGFP/TRPV1-positive cells. The bottom trace in (d) represents responses of an EGFP/TRPV1-negative cell assayed simultaneously. (e) Acid responses recorded in the presence of APHC3 (90, 160 and 240 nM) normalized to a control response. The data are presented as the mean ± s.d. (n = 5–10). […] In each case, the control response was calculated as an average of the two acid responses recorded just prior to peptide application. The average of the two acid responses recorded after peptide application was calculated and normalized to the control response. Experimental traces in (c, d) were obtained from three different cells. The changes in bath solution pH (continuous lines) and APHC3 applications (thick straight lines) are shown above the fluorescence traces. Cells were stimulated and rinsed by a rapid replacement of the control bath solution with modified bath solution at pH 5.5 with or without APHC3.
HEK-293 cells were cultured in Dulbecco’s modified Eagle’s medium (DMEM) (Life Technologies, Grand Island, NY, USA) containing 10% (vol/vol) fetal bovine serum (Thermo Fisher Scientific, Palm Beach, FL, USA), glutamine (1%) and the antibiotic gentamicin (100 μg/mL) (Life Technologies, Grand Island, NY, USA). The pIRES2-EGFP plasmid harboring rat TRPV1 cDNA was transiently transfected into HEK-293 cells by replacing the growth medium in each well with a transfection mixture, containing 1.6 μg of DNA and 4 μL of Lipofectamine (Life Technologies, Grand Island, NY, USA) in 1 mL of serum-free DMEM. After incubating for 6 h, the transfection mixture was replaced with normal culture medium. Cells were assayed within 48–96 h after transfection.

Substance | agonistic/antagonistic activity at ASIC3 (ASIC3) | agonistic/antagonistic activity at p2X3 (p2X3) | travelled distance and rearing, open-field locomotor activity (CD-1 mice [1]) | doses with antinociceptive and analgesic activity in vivo (CD-1 mice [2]) [mg/kg] | inhibition of capsaicin-induced currents (TRPV1 [3]; more than 200 nM) | activity on capsaicin-induced TRPV1 currents, in words (TRPV1 [3]; previous study) | modulation of TRPV1-dependent normal and diabetic bladder smooth muscle contractility [4] | inhibition of serine proteases (serine proteases) | reversibility of inhibitory effects (TRPV1 [5]; after washout of the polypeptide, Figure 2a,c,d (capsaicin currents and acid responses)) | inhibition of acid-induced Ca^2+ transients, significance (TRPV1 [5]; pH 5.5, 160 and 240 nM, Student test, p < 0.05) | inhibition of acid responses, in words (TRPV1 [5]; pH 5.5, APHC3 90 nM, n = 5) | inhibition of acid responses (TRPV1 [5]; pH 5.5, APHC3 160 nM, n = 7) | inhibition of acid responses (TRPV1 [5]; pH 5.5, APHC3 240 nM, 10 cells)
APHC1: polypeptide modulator of TRPV1 from sea anemone Heteractis crispa; homologous to BPTI/Kunitz type serine-protease inhibitors; produced recombinantly in E. coli (GSICLEPKVVGPCTAYFRRFYFDSETGKCTVFIYGGCEGNGNNFETLRACRAICRA; left off: TRX, end not stated, cleaved) | neither agonistic nor antagonistic activity | neither agonistic nor antagonistic activity | did not significantly alter normal mouse behavior | 0.01 to 0.1 | ~ 32% | partial antagonist | modulate | weak inhibitors |  |  |  |  | 
APHC3: polypeptide from Heteractis crispa highly homologous to APHC1, differing in four of 56 amino acids; produced recombinantly in E. coli (GSICLEPKVVGPCTAYFPRFYFNSETGKCTPFIYGGCEGNGNNFETLRACRGICRA; left off: TRX, end not stated, cleaved) | neither agonistic nor antagonistic activity | neither agonistic nor antagonistic activity | did not significantly alter normal mouse behavior | 0.01 to 0.1 |  |  | modulate | weak inhibitors | almost completely reversible | statistically significant at 160 and 240 nM | insignificantly effective | 15% ± 9% | 77% ± 14%
